According to PubChem BioAssay AID488801 (NMMLSC, 2010):
The source made the active and inactive calls.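 Rule for the calls: active = EC50 at or below 33 microM; inactive = the rest.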

Target: Ammonium transporter MEP2 (Saccharomyces cerevisiae (strain ATCC 204508 / S288c)) (UniProt P41948)
Experiment: yeast MEP2-GFP fusion level changes, TOR pathway – flow cytometry, KU SAR set, S. cerevisiae, dose response (AID 488801)
Details: flow cytometry MCF, 3 h

Sequence of Ammonium transporter MEP2 (Saccharomyces cerevisiae (strain ATCC 204508 / S288c)) (P41948 whole entry, looked up, the tested form may be a part): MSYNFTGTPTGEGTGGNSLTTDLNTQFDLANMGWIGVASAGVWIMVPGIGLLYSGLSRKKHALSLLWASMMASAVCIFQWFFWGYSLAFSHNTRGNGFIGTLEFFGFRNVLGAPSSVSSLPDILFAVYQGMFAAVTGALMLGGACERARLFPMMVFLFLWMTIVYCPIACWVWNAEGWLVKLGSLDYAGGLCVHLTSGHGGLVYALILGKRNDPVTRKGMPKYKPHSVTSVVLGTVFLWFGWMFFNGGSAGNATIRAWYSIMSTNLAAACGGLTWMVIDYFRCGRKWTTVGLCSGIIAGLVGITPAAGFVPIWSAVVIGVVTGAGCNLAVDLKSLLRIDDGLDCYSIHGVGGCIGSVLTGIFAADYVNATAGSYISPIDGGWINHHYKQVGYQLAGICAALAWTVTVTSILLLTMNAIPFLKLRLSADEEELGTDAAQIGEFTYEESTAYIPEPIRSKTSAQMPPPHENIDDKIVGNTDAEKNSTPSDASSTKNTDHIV

Row | EC50 | Compound
1 | inactive | Cc1cc(C(=O)Nc2nc(-c3ccccn3)cs2)ccc1[N+](=O)[O-]
2 | 15.8 µM | CNc1nc(N)c([N+](=O)[O-])c(Nc2cccc(F)c2)n1
3 | inactive | O=C(Oc1c(Cl)cc(Cl)c2cccnc12)c1cccc([N+](=O)[O-])c1
4 | inactive | COc1ccc([N+](=O)[O-])c(S(=O)(=O)c2ccccc2)n1
5 | inactive | CNc1nc(N)c([N+](=O)[O-])c(NCC2CCCO2)n1 (stereo unspecified)
6 | inactive | CSC1=NS(=O)(=O)c2c(C)nn(C)c2S1
7 | inactive | Nc1cc(Oc2cccc(Cl)c2)nc(NCc2ccccc2)n1
8 | inactive | CCN(CC)C(=O)Oc1ccnc2cc(Cl)ccc12
9 | inactive | O=C(Nc1nc(-c2ccccn2)cs1)C1COc2ccccc2O1 (stereo unspecified)
10 | inactive | C/C(=N\NC(=O)c1cccc(Br)c1)c1ccccn1
11 | inactive | O=C(Oc1c(Cl)cc(Cl)c2cccnc12)c1ccco1
12 | 2.72 µM | CNc1nc(N)c([N+](=O)[O-])c(Nc2cccc(Cl)c2)n1
13 | inactive | C/C(=N\NC(=O)c1ccc(C(C)(C)C)cc1)c1ccccn1
14 | inactive | Cc1ccc(/C=C2/C(=O)ON=C2c2ccccc2)o1
15 | inactive | O=C(OCC(=O)N1CCN(C(=O)c2ccco2)CC1)c1cc(-c2cccc(Br)c2)nc2ccccc12
16 | inactive | O=C(Nc1nc(-c2ccccn2)cs1)c1cc2ccccc2o1
17 | inactive | Cc1ccc(C(c2cc(Cl)c3cccnc3c2O)N2CCN(C)CC2)cc1 (stereo unspecified)
18 | inactive | Cc1ccc(S(=O)(=O)c2ncccc2[N+](=O)[O-])cc1
19 | 3.97 µM | O=C(Oc1ccnc2cc(Cl)ccc12)N1CCCCCC1
20 | inactive | Nc1cc(Nc2cccc(F)c2)nc(NCc2ccccc2)n1
21 | inactive | CN1CCN(C(c2ccc(C(F)(F)F)cc2)c2ccc3cccnc3c2O)CC1 (stereo unspecified)
